Among the data in PubChem BioAssay AID1259411 (Chemical Carcinogenesis Research Information System (CCRIS), 2018) are carcinogen call values, retold here.

The data set deals with rodent carcinogenicity bioassays, tumor incidence. The data set is described as follows: CCRIS carcinogenicity studies. An excerpt: The CCRIS database contains chemical records with carcinogenicity, mutagenicity, tumor promotion, and tumor inhibition test results. It was developed by the National Cancer Institute (NCI). Data are derived from studies cited in primary journals, current awareness tools, NCI reports, and other sources. Test results have been reviewed by experts in carcinogenesis and mutagenesis.
CCRIS provides historical information from the years 1985 - 2011. It is no longer updated.
This is an archive assay for CCRIS carcinogenicity studies.

Activity calls are given as the source filed them. No rule for the calls is given here.

Consider `C[C@H]1O[C@@H]1Cl`, for which the carcinogen call was “active; positive” (Species: MOUSE, Strain/Sex: ICR/FEMALE, Route: DERMAL, Dose: 10 MG IN 0.1 ML ACETONE 3/WK FOR LIFE, Tumor Site: Type of Lesion: INTEGUMENTARY SYSTEM (SKIN): PAPILLOMA, SQUAMOUS CELL CARCINOMA) and “active; positive” (Species: MOUSE, Strain/Sex: ICR/FEMALE, Route: SUBCUTANEOUS, Dose: 1 MG IN 0.05 ML TRICAPRYLIN 1/WK FOR LIFE, Tumor Site: Type of Lesion: INJECTION SITE: FIBROSARCOMA, CARCINOMA).
As for `CCCCCCCN(C)N=O`, the carcinogen call (Species: HAMSTER, Strain/Sex: SYRIAN/FEMALE, Route: GAVAGE, Dose: 0, 6.8 MG/KG 1/WK FOR 40 WK (TOTAL DOSE: 0; 2.1 MMOL) (STUDY DURATION: LIFETIME), Dose: 0, 6.8 MG/KG 1/WK FOR 40 WK (TOTAL DOSE: 0; 2.1 MMOL) (STUDY DURATION: LIFETIME), Tumor Site: Type of Lesion: LIVER: CHOLANGIOMA, LUNG: ALVEOLAR/BRONCHIAL CARCINOMA, ALVEOLAR/BRONCHIAL ADENOMA, ADENOSQUAMOUS CARCINOMA, NASAL MUCOS, Tumor Site: Type of Lesion: LIVER: CHOLANGIOMA, LUNG: ALVEOLAR/BRONCHIAL CARCINOMA, ALVEOLAR/BRONCHIAL ADENOMA, ADENOSQUAMOUS CARCINOMA, NASAL MUCOS) is “active; positive” and the carcinogen call (Species: HAMSTER, Strain/Sex: SYRIAN/MALE, Route: GAVAGE, Dose: 0, 6.8 MG/KG 1/WK FOR 40 WK (TOTAL DOSE: 0; 2.1 MMOL) (STUDY DURATION: LIFETIME), Dose: 0, 6.8 MG/KG 1/WK FOR 40 WK (TOTAL DOSE: 0; 2.1 MMOL) (STUDY DURATION: LIFETIME), Tumor Site: Type of Lesion: LIVER: CHOLANGIOMA, HEMANGIOSARCOMA, LUNG: ALVEOLAR/BRONCHIAL CARCINOMA, ALVEOLAR/BRONCHIAL ADENOMA, ADENOSQUAMOUS CARCI) is “active; positive”.
Regarding `CC(C)=CC1C(C(=O)OC(C#N)c2cccc(Oc3ccccc3)c2)C1(C)C` (stereo not given), the carcinogen call is, setting by setting: (Species: Mouse, Strain/Sex: B6C3F1/Female (80/group), Route: Oral, Dose: 0, 100, 300, 1,000 ppm of 94.6-94.9% pure cyphenothrin for 104 wk, Dose: 0, 100, 300, 1,000 ppm of 94.6-94.9% pure cyphenothrin for 104 wk) “inactive; negative (study details not presented by dpr evaluator)”; (Species: Mouse, Strain/Sex: B6C3F1/Male (80/group), Route: Oral, Dose: 0, 100, 300, 1,000 ppm of 94.6-94.9% pure cyphenothrin for 104 wk, Dose: 0, 100, 300, 1,000 ppm of 94.6-94.9% pure cyphenothrin for 104 wk) “inactive; negative (study details not presented by dpr evaluator)”.
In the case of `CN(CCCC(O)c1cccnc1)N=O` (stereo not given), the carcinogen call was “active; positive” (Species: MOUSE, Strain/Sex: STRAIN-A/FEMALE, Route: INTRAPERITONEAL, Dose: 0, 10, 50 UMOL TOTAL DOSE ADMINISTERED IN SUBDOSES 3/WK FOR 7 WK (STUDY DURATION: 37 WK), Dose: 0, 10, 50 UMOL TOTAL DOSE ADMINISTERED IN SUBDOSES 3/WK FOR 7 WK (STUDY DURATION: 37 WK), Tumor Site: Type of Lesion: LUNG: TUMOR) and “active; positive” (Species: RAT, Strain/Sex: F344/MALE, Route: ORAL, Dose: 0, 5 PPM IN DRINKING WATER FOR DURATION OF STUDY (TOTAL DOSE: 0; 0.69 MMOL/KG) (STUDY DURATION: 112 WK), Dose: 0, 5 PPM IN DRINKING WATER FOR DURATION OF STUDY (TOTAL DOSE: 0; 0.69 MMOL/KG) (STUDY DURATION: 112 WK), Tumor Site: Type of Lesion: LUNG: ADENOCARCINOMA, ADENOSQUAMOUS CARCINOMA, EXOCRINE PANCREAS: ACINAR ADENOMA OR ACINAR ADENOCARCINOMA OR DUCTAL ADEN).
With `NC(=O)OC1CO1` (stereo not given), the carcinogen call (Species: MOUSE, Strain/Sex: B6C3F1/MALE, Route: INTRAPERITONEAL, Dose: 0, 0.5, 1.25, 2.5 UG/G BW IN 10 µL TRIOCTANOIN ONCE (STUDY DURATION: 9 MO), Dose: 0, 0.5, 1.25, 2.5 UG/G BW IN 10 µL TRIOCTANOIN ONCE (STUDY DURATION: 9 MO), Tumor Site: Type of Lesion: LIVER: HEPATOMA) is “active; positive”; the carcinogen call (Species: MOUSE, Strain/Sex: CD-1/FEMALE, Route: DERMAL, Dose: 0, 11.5 UMOL IN WEEKS 1 AND 2 THEN 5.7 UMOL IN WEEKS 3 AND 4 FOLLOWED BY 3.8 UMOL/WK FOR 28 WK (STUDY DURATION: 42 WK), Tumor Site: Type of Lesion: SKIN: PAPILLOMA, CARCINOMA) is “active; positive”; the carcinogen call (Species: MOUSE, Strain/Sex: STRAIN-A/FEMALE, Route: INTRAPERITONEAL, Dose: 0, 34, 68 NMOL/G BW IN 5 µL TRIOCTANOIN ONCE (STUDY DURATION: 6 MO), Dose: 0, 34, 68 NMOL/G BW IN 5 µL TRIOCTANOIN ONCE (STUDY DURATION: 6 MO), Tumor Site: Type of Lesion: LUNG: ADENOMA) is “active; positive”; the carcinogen call (Species: RAT, Strain/Sex: SPRAGUE-DAWLEY/FEMALE, Route: INTRAMUSCULAR, Dose: 0, 1.15, 2.30 UMOL IN 0.25 ML TRIOCTANOIN 1/WK FOR 10 WK (STUDY DURATION: 18 MO), Dose: 0, 1.15, 2.30 UMOL IN 0.25 ML TRIOCTANOIN 1/WK FOR 10 WK (STUDY DURATION: 18 MO), Tumor Site: Type of Lesion: INJECTION SITE: SARCOMA, MAMMARY GLAND: TUMOR) was “active; positive”.
`CN(C)c1ccc(C(=C2C=CC(=[N+](C)C)C=C2)c2ccc(N(C)C)cc2)cc1`: the carcinogen call is, setting by setting: (Species: MOUSE, Strain/Sex: B6C3F1/FEMALE, Route: ORAL, Dose: 0, 100, 300, 600 PPM IN DIET FOR 104 WK (STUDY DURATION: 2 YR), Dose: 0, 100, 300, 600 PPM IN DIET FOR 104 WK (STUDY DURATION: 2 YR), Tumor Site: Type of Lesion: LIVER: MALIGNANT NEOPLASM, HARDERIAN GLAND: ADENOMA, UTERUS: TYPE-A RETICULUM CELL SARCOMA, OVARIES: TYPE-A RETICULUM CE, Tumor Site: Type of Lesion: LIVER: MALIGNANT NEOPLASM, HARDERIAN GLAND: ADENOMA, UTERUS: TYPE-A RETICULUM CELL SARCOMA, OVARIES: TYPE-A RETICULUM CE) “active; positive”; (Species: MOUSE, Strain/Sex: B6C3F1/MALE, Route: ORAL, Dose: 0, 100, 300, 600 PPM IN DIET FOR 104 WK (STUDY DURATION: 2 YR), Dose: 0, 100, 300, 600 PPM IN DIET FOR 104 WK (STUDY DURATION: 2 YR), Tumor Site: Type of Lesion: LIVER: MALIGNANT NEOPLASM, HARDERIAN GLAND: ADENOMA) “active; positive”; (Species: RAT, Strain/Sex: F344/FEMALE, Route: ORAL, Dose: 0, 100, 300, 600 PPM IN FEED FOR 24 MO (STUDY DURATION: 24 MO), Dose: 0, 100, 300, 600 PPM IN FEED FOR 24 MO (STUDY DURATION: 24 MO), Tumor Site: Type of Lesion: LIVER: HEPATOCELLULAR ADENOMA, THYROID GLAND: FOLLICULAR CELL ADENOCARCINOMA) “active; positive”; (Species: RAT, Strain/Sex: F344/MALE, Route: ORAL, Dose: 0, 100, 300, 600 PPM IN FEED FOR 24 MO (STUDY DURATION: 24 MO), Dose: 0, 100, 300, 600 PPM IN FEED FOR 24 MO (STUDY DURATION: 24 MO), Tumor Site: Type of Lesion: LIVER: HEPATOCELLULAR ADENOMA, THYROID GLAND: FOLLICULAR CELL ADENOCARCINOMA) “active; positive”.
Turning to `C=C(C)C(N)=O`, the carcinogen call is, setting by setting: (Species: MOUSE, Strain/Sex: DDY, Route: INTRAPERITONEAL, Dose: 0, 2.35 MMOL/KG 1/2 D FOR 5 DOSES (STUDY DURATION: 6 MO), Tumor Site: Type of Lesion: LUNG: ADENOMA) “active; positive”; (Species: MOUSE, Strain/Sex: DDY, Route: INTRAPERITONEAL, Dose: 0, 2.35 MMOL/KG 1/D FOR 5 D (STUDY DURATION: 6 MO), Tumor Site: Type of Lesion: LUNG: ADENOMA) “active; positive”.
Take `O=[N+]([O-])O`: the carcinogen call (Species: RAT, Strain/Sex: F344/MALE,FEMALE, Route: ORAL, Dose: 2.5, 5% IN DRINKING WATER FOR 2 YR) was “inactive; negative”.
For `CCOC(=O)CC(SP(=S)(OC)OC)C(=O)OCC` (stereo not given), the carcinogen call by setting is: (Species: MOUSE, Strain/Sex: B6C3F1/FEMALE, Route: ORAL, Dose: 0, 8000, 16000 PPM IN DIET, Dose: 0, 8000, 16000 PPM IN DIET) “inactive; negative”; (Species: MOUSE, Strain/Sex: B6C3F1/MALE, Route: ORAL, Dose: 0, 8000, 16000 PPM IN DIET, Dose: 0, 8000, 16000 PPM IN DIET) “inactive; negative”; (Species: RAT, Strain/Sex: F344/FEMALE, Route: ORAL, Dose: 0, 2000, 4000 PPM IN DIET, Dose: 0, 2000, 4000 PPM IN DIET) “inactive; negative”; (Species: RAT, Strain/Sex: F344/MALE, Route: ORAL, Dose: 0, 2000, 4000 PPM IN DIET, Dose: 0, 2000, 4000 PPM IN DIET) “inactive; negative”; (Species: RAT, Strain/Sex: OSBORNE-MENDEL/FEMALE, Route: ORAL, Dose: 0, 4700, 8150 PPM IN DIET, TWA FOR 80 WK, Dose: 0, 4700, 8150 PPM IN DIET, TWA FOR 80 WK) “inactive; negative”; (Species: RAT, Strain/Sex: OSBORNE-MENDEL/MALE, Route: ORAL, Dose: 0, 4700, 8150 PPM IN DIET, TWA FOR 80 WK, Dose: 0, 4700, 8150 PPM IN DIET, TWA FOR 80 WK) “inactive; negative”.
